Results taken from patent publication US8765748B2, “Indazolyl, benzimidazolyl, benzotriazolyl substituted indolinone derivatives as kinase inhibitors useful in the treatment of cancer” (University Health Network, priority 2007, dated 2014).

Key:
AMPKa = assay: Kinase Selectivity Assay (CEREP, HTRF); assay type: biochemical, human
Method: (§1) kinase, ROCK2, RSK2, Src kinase, Syk, and TRKA. The % Inhibition was determined

Abl [1] = target: T1, Abl (Homo sapiens, UniProt P00519); assay: Kinase Selectivity Assay (CEREP, HTRF); assay type: biochemical; parameters: CEREP, France (ran the assays); conditions: read-out: % Inhibition at 10 μM Concentration, Abl
Method: as §1

FGFR2 kinase = target: T2, FGFR2 kinase (Homo sapiens, UniProt P21802); assay: Kinase Selectivity Assay (CEREP, HTRF); assay type: biochemical; conditions: read-out: % Inhibition at 10 μM Concentration, FGFR2
T2 construct: CEREP, France (ran the assays)
T2 sequence (P21802 22-821): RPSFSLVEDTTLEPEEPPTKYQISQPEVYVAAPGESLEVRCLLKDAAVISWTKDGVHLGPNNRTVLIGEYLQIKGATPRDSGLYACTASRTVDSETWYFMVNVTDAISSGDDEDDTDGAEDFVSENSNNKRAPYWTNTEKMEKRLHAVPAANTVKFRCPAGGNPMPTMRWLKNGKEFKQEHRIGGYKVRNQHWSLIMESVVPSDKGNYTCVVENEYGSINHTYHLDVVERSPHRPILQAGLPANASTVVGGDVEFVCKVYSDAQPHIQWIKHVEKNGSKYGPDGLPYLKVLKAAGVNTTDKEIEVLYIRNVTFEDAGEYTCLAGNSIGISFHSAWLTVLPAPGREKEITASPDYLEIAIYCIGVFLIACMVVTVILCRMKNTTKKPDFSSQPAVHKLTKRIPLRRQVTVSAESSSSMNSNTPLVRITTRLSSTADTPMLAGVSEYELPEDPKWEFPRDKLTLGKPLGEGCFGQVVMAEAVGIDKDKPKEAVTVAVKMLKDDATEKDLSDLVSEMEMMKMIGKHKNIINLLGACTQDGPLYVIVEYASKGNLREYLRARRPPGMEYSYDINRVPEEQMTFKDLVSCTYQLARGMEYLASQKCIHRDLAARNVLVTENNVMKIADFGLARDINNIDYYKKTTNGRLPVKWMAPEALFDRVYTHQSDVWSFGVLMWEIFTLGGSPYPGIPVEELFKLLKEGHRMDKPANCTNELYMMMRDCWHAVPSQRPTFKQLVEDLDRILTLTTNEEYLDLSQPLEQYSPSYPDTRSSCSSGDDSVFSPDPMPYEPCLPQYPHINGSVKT
Method: as §1

ROCK2 = ROCK2 (Homo sapiens, UniProt O75116); assay: Kinase Selectivity Assay (CEREP, HTRF); assay type: biochemical; conditions: read-out: % Inhibition at 10 μM Concentration, ROCK2
Sequence of ROCK2 (O75116 whole entry): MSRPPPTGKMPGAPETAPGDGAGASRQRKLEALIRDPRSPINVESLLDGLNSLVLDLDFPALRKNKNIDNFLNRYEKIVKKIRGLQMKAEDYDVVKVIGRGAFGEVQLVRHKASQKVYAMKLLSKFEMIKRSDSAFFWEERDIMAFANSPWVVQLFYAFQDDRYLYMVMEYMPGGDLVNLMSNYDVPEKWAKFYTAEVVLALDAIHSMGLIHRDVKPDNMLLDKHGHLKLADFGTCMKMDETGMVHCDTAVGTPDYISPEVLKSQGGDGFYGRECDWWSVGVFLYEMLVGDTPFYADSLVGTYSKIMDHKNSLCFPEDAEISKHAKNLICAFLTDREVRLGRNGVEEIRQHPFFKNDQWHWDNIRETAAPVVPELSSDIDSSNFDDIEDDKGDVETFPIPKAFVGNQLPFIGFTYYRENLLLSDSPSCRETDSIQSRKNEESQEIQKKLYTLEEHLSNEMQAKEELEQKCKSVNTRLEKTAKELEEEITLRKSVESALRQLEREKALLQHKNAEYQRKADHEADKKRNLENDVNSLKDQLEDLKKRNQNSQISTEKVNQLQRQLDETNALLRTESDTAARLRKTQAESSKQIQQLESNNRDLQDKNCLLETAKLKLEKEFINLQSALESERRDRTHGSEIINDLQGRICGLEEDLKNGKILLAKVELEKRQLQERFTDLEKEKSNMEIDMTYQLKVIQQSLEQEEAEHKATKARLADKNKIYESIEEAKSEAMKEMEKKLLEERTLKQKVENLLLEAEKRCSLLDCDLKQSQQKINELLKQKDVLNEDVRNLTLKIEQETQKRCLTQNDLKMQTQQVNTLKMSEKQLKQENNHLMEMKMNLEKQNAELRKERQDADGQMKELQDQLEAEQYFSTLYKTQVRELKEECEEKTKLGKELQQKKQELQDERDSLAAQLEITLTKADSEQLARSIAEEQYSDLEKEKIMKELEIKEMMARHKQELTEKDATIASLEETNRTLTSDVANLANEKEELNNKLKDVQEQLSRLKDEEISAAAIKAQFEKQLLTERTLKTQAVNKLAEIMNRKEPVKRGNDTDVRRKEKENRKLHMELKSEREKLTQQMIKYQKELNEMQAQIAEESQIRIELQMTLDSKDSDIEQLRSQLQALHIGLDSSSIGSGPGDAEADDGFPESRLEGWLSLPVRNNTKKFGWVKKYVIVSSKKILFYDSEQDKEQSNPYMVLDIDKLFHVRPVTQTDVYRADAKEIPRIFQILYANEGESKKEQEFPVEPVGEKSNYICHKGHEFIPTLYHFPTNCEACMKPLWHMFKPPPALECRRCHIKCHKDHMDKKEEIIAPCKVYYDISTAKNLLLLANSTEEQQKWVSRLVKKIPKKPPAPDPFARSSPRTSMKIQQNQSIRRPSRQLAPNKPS
Method: as §1

CHK2 = target: T3, CHK2 (Homo sapiens, UniProt O96017); assay: Kinase Selectivity Assay (CEREP, HTRF); assay type: biochemical; conditions: read-out: % Inhibition at 10 μM Concentration, CHK2
T3 construct: CEREP, France (ran the assays)
T3 sequence (O96017 whole entry): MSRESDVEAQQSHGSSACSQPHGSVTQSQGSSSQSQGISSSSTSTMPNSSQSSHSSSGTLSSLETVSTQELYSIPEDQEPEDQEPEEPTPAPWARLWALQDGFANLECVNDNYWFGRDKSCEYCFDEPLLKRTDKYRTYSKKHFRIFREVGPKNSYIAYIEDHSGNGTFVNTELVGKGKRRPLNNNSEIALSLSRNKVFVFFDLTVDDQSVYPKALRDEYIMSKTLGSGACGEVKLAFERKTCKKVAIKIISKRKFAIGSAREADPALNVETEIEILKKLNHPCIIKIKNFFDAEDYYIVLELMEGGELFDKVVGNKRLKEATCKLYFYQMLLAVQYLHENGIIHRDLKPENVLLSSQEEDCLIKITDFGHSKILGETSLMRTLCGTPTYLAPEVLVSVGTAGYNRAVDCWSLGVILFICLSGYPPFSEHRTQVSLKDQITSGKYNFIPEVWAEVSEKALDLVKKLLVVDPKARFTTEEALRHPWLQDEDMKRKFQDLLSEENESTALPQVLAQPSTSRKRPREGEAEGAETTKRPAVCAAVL
Method: as §1

FGFR4 kinase = target: T4, FGFR4 kinase (Homo sapiens, UniProt P22455); assay: Kinase Selectivity Assay (CEREP, HTRF); assay type: biochemical; conditions: read-out: % Inhibition at 10 μM Concentration, FGFR4
T4 construct: CEREP, France (ran the assays)
T4 sequence (P22455 22-802): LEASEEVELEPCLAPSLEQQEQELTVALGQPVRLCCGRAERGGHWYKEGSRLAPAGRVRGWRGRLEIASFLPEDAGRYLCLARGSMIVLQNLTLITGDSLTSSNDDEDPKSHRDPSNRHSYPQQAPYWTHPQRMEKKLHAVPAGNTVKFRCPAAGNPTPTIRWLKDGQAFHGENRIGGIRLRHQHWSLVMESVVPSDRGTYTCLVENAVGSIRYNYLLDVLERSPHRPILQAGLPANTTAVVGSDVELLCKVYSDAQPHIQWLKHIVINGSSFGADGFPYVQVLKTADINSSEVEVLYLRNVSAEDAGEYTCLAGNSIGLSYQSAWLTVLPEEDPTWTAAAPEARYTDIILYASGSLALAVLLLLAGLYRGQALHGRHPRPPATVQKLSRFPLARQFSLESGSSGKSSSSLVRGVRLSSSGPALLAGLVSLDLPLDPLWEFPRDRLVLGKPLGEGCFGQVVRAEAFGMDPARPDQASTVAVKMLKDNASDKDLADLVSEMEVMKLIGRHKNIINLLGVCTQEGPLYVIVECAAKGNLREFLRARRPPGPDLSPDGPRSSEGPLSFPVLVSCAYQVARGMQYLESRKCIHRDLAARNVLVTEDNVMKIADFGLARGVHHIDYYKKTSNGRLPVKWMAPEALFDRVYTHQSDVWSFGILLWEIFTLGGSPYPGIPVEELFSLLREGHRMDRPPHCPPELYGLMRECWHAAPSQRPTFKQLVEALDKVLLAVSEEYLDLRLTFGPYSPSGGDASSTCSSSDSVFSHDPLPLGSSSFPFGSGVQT
Method: as §1

Src kinase = Src kinase (Homo sapiens, UniProt P12931); assay: Kinase Selectivity Assay (CEREP, HTRF); assay type: biochemical; conditions: read-out: % Inhibition at 10 μM Concentration, Src
Sequence of Src kinase (P12931 whole entry): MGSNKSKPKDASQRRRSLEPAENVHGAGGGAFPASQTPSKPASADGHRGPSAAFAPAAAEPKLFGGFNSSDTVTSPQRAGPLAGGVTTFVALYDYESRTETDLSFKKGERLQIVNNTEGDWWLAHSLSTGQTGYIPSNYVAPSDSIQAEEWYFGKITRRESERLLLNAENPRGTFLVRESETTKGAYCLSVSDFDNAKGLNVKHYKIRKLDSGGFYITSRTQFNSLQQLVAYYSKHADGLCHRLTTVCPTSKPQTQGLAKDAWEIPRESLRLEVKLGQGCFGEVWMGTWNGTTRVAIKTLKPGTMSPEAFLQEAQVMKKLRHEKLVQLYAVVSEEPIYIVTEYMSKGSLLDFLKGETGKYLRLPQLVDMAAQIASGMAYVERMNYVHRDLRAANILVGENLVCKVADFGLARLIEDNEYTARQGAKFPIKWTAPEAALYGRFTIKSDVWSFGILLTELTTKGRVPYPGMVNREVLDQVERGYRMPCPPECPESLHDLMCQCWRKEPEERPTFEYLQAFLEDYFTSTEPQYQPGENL
Method: as §1

[2] = tested on: HCT116+/+ colon cancer cell line; assay: Cell growth inhibition, SRB assay, extended panel; assay type: cell-based; conditions: Homo sapiens, HCT-116, read-out: GI50 Range, HCT116+/+
[3] = tested on: HS578T breast cancer cell line; assay: Cell growth inhibition, SRB assay, extended panel; assay type: cell-based; conditions: Homo sapiens, Hs-578T, read-out: GI50 Range, HS578T
[4] = tested on: 184A1 immortalized breast cell line; assay: Cell growth inhibition, SRB assay, extended panel; assay type: cell-based; conditions: read-out: GI50 Range, 184A1
[5] = tested on: T47 D breast cancer cell line; assay: Cell growth inhibition, SRB assay, extended panel; assay type: cell-based; conditions: Homo sapiens, T47D; SRB, extended panel; read-out: GI50 Range, T47 D
[6] = tested on: Colo 205 colon cancer cell line; assay: Cell growth inhibition, SRB assay, extended panel; assay type: cell-based; conditions: Homo sapiens, read-out: GI50 Range, Colo 205
Lyn = Lyn (Homo sapiens, UniProt P07948); assay: Millipore kinase assay, radiolabelled phosphopeptide filter binding, IC50 estimate; assay type: biochemical; parameters: purchased Millipore (assay service); conditions: estimated from inhibition at three compound concentrations; ATP at the Km
Method: (§2) Kinase assays at Millipore were performed using a radiolabelled phosphopeptide filter binding detection system, in duplicate, at each compound concentration. The ATP substrate concentration in the reactions was at the Km for each enzyme.
(§3) To allow for a more direct comparison of compound inhibition, an IC50 value was estimated from the inhibition determined at three compound concentrations. Several assumptions were made to allow this calculation using a 4 parameter non linear curve fit model, including full inhibition set at 100%, no inhibition set to 0%, and a curve fit parameter set at 1. The inflection point was reported as the estimated IC50.

Abl [7] = target: T1, Abl; assay: as above; assay type: biochemical; parameters: purchased Millipore (assay service); conditions: estimated from inhibition at three compound concentrations; ATP at the Km
Method: as §2, §3

Ret = Ret (Homo sapiens, UniProt P07949); assay: as above; assay type: biochemical; parameters: purchased Millipore (assay service); conditions: estimated from inhibition at three compound concentrations; ATP at the Km
Method: as §2, §3

TRKA = TRKA (Homo sapiens, UniProt P04629); assay: as above; assay type: biochemical; parameters: purchased Millipore (assay service); conditions: estimated from inhibition at three compound concentrations; ATP at the Km
Sequence of TRKA (P04629 33-796): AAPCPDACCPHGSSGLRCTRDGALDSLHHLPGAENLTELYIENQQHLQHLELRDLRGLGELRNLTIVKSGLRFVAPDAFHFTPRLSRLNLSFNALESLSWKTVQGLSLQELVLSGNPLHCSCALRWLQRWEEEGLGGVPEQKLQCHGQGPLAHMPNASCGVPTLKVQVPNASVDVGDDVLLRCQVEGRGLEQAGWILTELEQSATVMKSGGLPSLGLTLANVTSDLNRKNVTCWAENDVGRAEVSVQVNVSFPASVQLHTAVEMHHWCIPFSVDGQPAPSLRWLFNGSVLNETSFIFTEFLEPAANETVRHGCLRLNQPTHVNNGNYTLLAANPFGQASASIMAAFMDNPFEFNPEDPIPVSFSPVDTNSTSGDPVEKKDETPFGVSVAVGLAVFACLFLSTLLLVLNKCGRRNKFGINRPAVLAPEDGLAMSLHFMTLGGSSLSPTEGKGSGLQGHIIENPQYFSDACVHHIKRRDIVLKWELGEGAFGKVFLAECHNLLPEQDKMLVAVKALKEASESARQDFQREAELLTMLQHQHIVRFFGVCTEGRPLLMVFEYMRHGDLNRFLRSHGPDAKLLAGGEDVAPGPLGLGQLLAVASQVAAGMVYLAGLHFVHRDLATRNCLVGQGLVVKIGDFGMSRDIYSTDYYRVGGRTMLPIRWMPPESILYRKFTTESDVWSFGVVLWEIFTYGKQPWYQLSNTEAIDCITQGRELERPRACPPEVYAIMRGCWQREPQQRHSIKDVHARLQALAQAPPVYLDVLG
Method: as §2, §3

[8] = tested on: SW 626 ovarian cancer cell line; assay: Cell growth inhibition, SRB assay, extended panel; assay type: cell-based; conditions: Homo sapiens, SW626, read-out: GI50 Range, SW 626
[9] = tested on: H358 lung cancer cell line; assay: Cell growth inhibition, SRB assay, extended panel; assay type: cell-based; conditions: Homo sapiens, NCI-H358, read-out: GI50 Range, H358
[10] = tested on: PC-3 prostate cancer cell line; assay: Cell growth inhibition, SRB assay, extended panel; assay type: cell-based; conditions: read-out: GI50 Range, PC-3
[11] = tested on: A172 brain cancer cell line; assay: Cell growth inhibition, SRB assay, extended panel; assay type: cell-based; conditions: Homo sapiens, A 172, read-out: GI50 Range, A172

SMILES | % Inhibition at 10 μM Concentration, AMPKalpha (AMPKa) | inhibition at 10 µM (Abl [1]) | inhibition at 10 µM (FGFR2 kinase) | inhibition at 10 µM (ROCK2) | inhibition at 10 µM (CHK2) | inhibition at 10 µM (FGFR4 kinase) | inhibition at 10 µM (Src kinase) | GI50 [2] | GI50 [3] | GI50 [4] | GI50 [5] | GI50 [6] | IC50 (Lyn) | IC50 (Abl [7]) | IC50 (Ret) | IC50 (TRKA) | GI50 [8] | GI50 [9] | GI50 [10] | GI50 [11]
O=C1Nc2ccccc2/C1=C\c1ccc2cn[nH]c2c1 [Example A5, (E)-3-((1H-indazol-6-yl)methylene)indolin-2-one] | 54% | 24% | 31% | 3% | 2% | -4% | -9% | – | – | – | – | – | – | – | – | – | – | – | – | –
COc1ccc2c(c1)C(=Cc1ccc3c(-c4ccc(N5CCN(C)CC5)nc4)n[nH]c3c1)C(=O)N2 (mixture of isomers) [Example A97, (E and Z)-5-methoxy-3-((3-(6-(4-methylpiperazin-1-yl)pyridin-3-yl)-1H-indazol-6-yl)methylene)indolin-2-one] | 76% | 99% | 35% | 22% | 4% | 30% | 24% | < 5 µM | < 5 µM | < 5 µM | < 5 µM | < 5 µM | 5 to 50 µM | < 5 µM | < 5 µM | < 5 µM | – | – | – | –
CN1CCN(c2ccc(/C=C/c3n[nH]c4cc(C=C5C(=O)Nc6ccccc65)ccc34)cn2)CC1 (mixture of isomers) [Example A108, (E and Z)-3-((3-((E)-2-(6-(4-methylpiperazin-1-yl)pyridin-3-yl)vinyl)-1H-indazol-6-yl)methylene)indolin-2-one] | – | – | – | – | – | – | – | < 5 µM | < 5 µM | < 5 µM | < 5 µM | < 5 µM | – | – | – | – | < 5 µM | < 5 µM | < 5 µM | < 5 µM
O=C1Nc2ccccc2/C1=C\c1ccc2[nH]nnc2c1 [Example A1, (E)-3-((1H-benzo[d][1,2,3]triazol-5-yl)methylene)indolin-2-one] | 15% | 34% | 68% | 1% | 14% | 18% | 10% | – | – | – | – | – | – | – | – | – | – | – | – | –
O=C1Nc2ccccc2C1=Cc1ccc2c(/C=C/c3ccccn3)n[nH]c2c1 (mixture of isomers) [Example A41, (E and Z)-3-((3-((E)-2-(pyridin-2-yl)vinyl)-1H-indazol-6-yl)methylene)indolin-2-one] | 81% | 100% | 97% | -3% | 22% | 38% | 59% | > 50 µM | 5 to 20 µM | 20 to 50 µM | < 5 µM | < 5 µM | < 5 µM | < 5 µM | < 5 µM | < 5 µM | > 50 µM | < 5 µM | 20 to 50 µM | < 5 µM
O=C1Nc2ncc(Br)cc2C1=Cc1ccc2c(/C=C/c3ccncc3)n[nH]c2c1 (mixture of isomers) [Example A109, (E and Z)-5-bromo-3-((3-((E)-2-(pyridin-4-yl)vinyl)-1H-indazol-6-yl)methyl-ene)-1H-pyrrolo[2,3-b]pyridin-2(3H)-one] | – | – | – | – | – | – | – | < 5 µM | < 5 µM | < 5 µM | < 5 µM | < 5 µM | – | – | – | – | 5 to 20 µM | < 5 µM | < 5 µM | < 5 µM
CN(C)Cc1ccc(/C=C/c2n[nH]c3cc(C=C4C(=O)Nc5ccccc54)ccc23)cc1 (mixture of isomers) [Example A106, (E and Z)-3-[(3-{(E)-2-[4-((dimethylamino)methyl)-phenyl]-ethenyl}-1H-indazol-6-yl)methylidene]-1,3-dihydro-2H-indol-2-one 2,2,2-trifluoroacetate] | – | – | – | – | – | – | – | – | – | – | – | – | < 5 µM | < 5 µM | < 5 µM | < 5 µM | – | – | – | –
O=C1Nc2ccccc2/C1=C\c1ccc2c(/C=C/c3ccccc3Cl)n[nH]c2c1 [Example A60, (E)-3-((3-((E)-2-chlorostyryl)-1H-indazol-6-yl)methylene)indolin-2-one] | 8% | 40% | 10% | -1% | 6% | 6% | 0% | – | – | – | – | – | – | – | – | – | – | – | – | –
